Measurements reported in patent US10167262B2, “Herbicidal substituted 3-arylpyrazoles” (FMC CORPORATION, priority 2014, dated 2019).

What was measured:
Assay in all cases: Test C pre-/postemergence greenhouse test, plant response rating 0-100;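 as to Plant response rating (0 to 100), Blackgrass: 0 is no effect and 100 is complete control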;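 as to Plant response rating (0 to 100), Ragweed: 0 is no effect and 100 is complete control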;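 as to Plant response rating, Blackgrass: 0 is no effect and 100 is complete control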;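 as to Plant response rating, Ragweed: 0 is no effect and 100 is complete control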
Type in all cases: in vivo
[1] = test system: lambsquarters (Chenopodium album)
Outline: (§1)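 After treatment, pots stay in the greenhouse 13–15 days before each species is compared with untreated controls and given a 0–100 visual score. Preemergence seeds are in loam blended with sand; postemergence plants, 1–4 leaves, are in peat-based medium.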

corn (Zea mays) = test system: corn (Zea mays)
Outline: as §1

[2] = test system: velvetleaf (Abutilon theophrasti)
Outline: as §1

[3] = test system: yellow nutsedge (Cyperus esculentus)
Outline: as §1

[4] = test system: blackgrass (Alopecurus myosuroides);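 also: 0 is no effect and 100 is complete control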
Outline: as §1

[5] = test system: large (Lg) crabgrass (Digitaria sanguinalis)
Outline: as §1

[6] = test system: galium (catchweed bedstraw, Galium aparine)
Outline: as §1

[7] = test system: pigweed (Amaranthus retroflexus)
Outline: as §1

soybean (Glycine max) = test system: soybean (Glycine max)
Outline: as §1

[8] = test system: morningglory (Ipomoea coccinea)
Outline: as §1

[9] = test system: ragweed (common ragweed, Ambrosia elatior);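 also: 0 is no effect and 100 is complete control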
Outline: as §1

[10] = test system: Italian ryegrass (Lolium multiflorum)
Outline: as §1

[11] = Postemergence, 250 g ai/ha, scale 0 to 100
[12] = Postemergence, 500 g ai/ha, scale 0 to 100

## O=Cn1cc(C(=O)c2ccccc2)c(-c2cc(Cl)cc(Cl)c2)n1 [Compound 28]
[1]; Postemergence, 62 g ai/ha
  Plant response rating (0 to 100), Lambsquarters: 90
[1]; Postemergence, 125 g ai/ha
  Plant response rating (0 to 100), Lambsquarters: 90
[1]; [11]
  Plant response rating, Lambsquarters: 98
[1]; [12]
  Plant response rating, Lambsquarters: 98
[1]; Preemergence, 62 g ai/ha
  Plant response rating, Lambsquarters: 100
[1]; Preemergence, 125 g ai/ha
  Plant response rating, Lambsquarters: 100
[1]; Preemergence, 250 g ai/ha
  Plant response rating, Lambsquarters: 100
[1]; Preemergence, 500 g ai/ha
  Plant response rating, Lambsquarters: 100
Corn (Zea mays); Postemergence, 62 g ai/ha
  Plant response rating (0 to 100), Corn: 0
Corn (Zea mays); Postemergence, 125 g ai/ha
  Plant response rating (0 to 100), Corn: 0
Corn (Zea mays); [11]
  Plant response rating, Corn: 0
Corn (Zea mays); [12]
  Plant response rating, Corn: 0
Corn (Zea mays); Preemergence, 62 g ai/ha
  Plant response rating, Corn: 0
Corn (Zea mays); Preemergence, 125 g ai/ha
  Plant response rating, Corn: 0
Corn (Zea mays); Preemergence, 250 g ai/ha
  Plant response rating, Corn: 0
Corn (Zea mays); Preemergence, 500 g ai/ha
  Plant response rating, Corn: 0
[2]; Postemergence, 62 g ai/ha
  Plant response rating (0 to 100), Velvetleaf: 80
[2]; Postemergence, 125 g ai/ha
  Plant response rating (0 to 100), Velvetleaf: 80
[2]; [11]
  Plant response rating, Velvetleaf: 85
[2]; [12]
  Plant response rating, Velvetleaf: 85
[2]; Preemergence, 62 g ai/ha
  Plant response rating, Velvetleaf: 65
[2]; Preemergence, 125 g ai/ha
  Plant response rating, Velvetleaf: 90
[2]; Preemergence, 250 g ai/ha
  Plant response rating, Velvetleaf: 98
[2]; Preemergence, 500 g ai/ha
  Plant response rating, Velvetleaf: 98
[3]; Postemergence, 62 g ai/ha
  Plant response rating (0 to 100), Nutsedge, Yellow: 0
[3]; Postemergence, 125 g ai/ha
  Plant response rating (0 to 100), Nutsedge, Yellow: 0
[3]; [11]
  Plant response rating, Nutsedge, Yellow: 5
[3]; [12]
  Plant response rating, Nutsedge, Yellow: 0
[3]; Preemergence, 62 g ai/ha
  Plant response rating, Nutsedge, Yellow: 0
[3]; Preemergence, 125 g ai/ha
  Plant response rating, Nutsedge, Yellow: 0
[3]; Preemergence, 250 g ai/ha
  Plant response rating, Nutsedge, Yellow: 0
[3]; Preemergence, 500 g ai/ha
  Plant response rating, Nutsedge, Yellow: 0
[4]; Postemergence, 62 g ai/ha
  Plant response rating (0 to 100), Blackgrass: 0
[4]; Postemergence, 125 g ai/ha, scale 0 to 100
  Plant response rating, Blackgrass: 0
[4]; [11]
  Plant response rating, Blackgrass: 0
[4]; [12]
  Plant response rating, Blackgrass: 0
[4]; Preemergence, 62 g ai/ha
  Plant response rating, Blackgrass: 0
[4]; Preemergence, 125 g ai/ha
  Plant response rating, Blackgrass: 0
[4]; Preemergence, 250 g ai/ha
  Plant response rating, Blackgrass: 5
[4]; Preemergence, 500 g ai/ha
  Plant response rating, Blackgrass: 5
[5]; Postemergence, 62 g ai/ha
  Plant response rating (0 to 100), Crabgrass, Large: 0
[5]; Postemergence, 125 g ai/ha
  Plant response rating (0 to 100), Crabgrass, Large: 0
[5]; [11]
  Plant response rating, Crabgrass, Large: 0
[5]; [12]
  Plant response rating, Crabgrass, Large: 0
[5]; Preemergence, 62 g ai/ha
  Plant response rating, Crabgrass, Large: 0
[5]; Preemergence, 125 g ai/ha
  Plant response rating, Crabgrass, Large: 0
[5]; Preemergence, 250 g ai/ha
  Plant response rating, Crabgrass, Large: 15
[5]; Preemergence, 500 g ai/ha
  Plant response rating, Crabgrass, Large: 15
[6]; Postemergence, 62 g ai/ha
  Plant response rating (0 to 100), Galium: 5
[6]; Postemergence, 125 g ai/ha
  Plant response rating (0 to 100), Galium: 40
[6]; [11]
  Plant response rating, Galium: 35
[6]; [12]
  Plant response rating, Galium: 30
[6]; Preemergence, 62 g ai/ha
  Plant response rating, Galium: 20
[6]; Preemergence, 125 g ai/ha
  Plant response rating, Galium: 80
[6]; Preemergence, 250 g ai/ha
  Plant response rating, Galium: 80
[6]; Preemergence, 500 g ai/ha
  Plant response rating, Galium: 80
[7]; Postemergence, 62 g ai/ha
  Plant response rating (0 to 100), Pigweed: 90
[7]; Postemergence, 125 g ai/ha
  Plant response rating (0 to 100), Pigweed: 98
[7]; [11]
  Plant response rating, Pigweed: 98
[7]; [12]
  Plant response rating, Pigweed: 100
[7]; Preemergence, 62 g ai/ha
  Plant response rating, Pigweed: 100
[7]; Preemergence, 125 g ai/ha
  Plant response rating, Pigweed: 100
[7]; Preemergence, 250 g ai/ha
  Plant response rating, Pigweed: 100
[7]; Preemergence, 500 g ai/ha
  Plant response rating, Pigweed: 100
Soybean (Glycine max); Postemergence, 62 g ai/ha
  Plant response rating (0 to 100), Soybean: 0
Soybean (Glycine max); Postemergence, 125 g ai/ha
  Plant response rating (0 to 100), Soybean: 0
Soybean (Glycine max); [11]
  Plant response rating, Soybean: 5
Soybean (Glycine max); [12]
  Plant response rating, Soybean: 5
Soybean (Glycine max); Preemergence, 62 g ai/ha
  Plant response rating, Soybean: 0
Soybean (Glycine max); Preemergence, 125 g ai/ha
  Plant response rating, Soybean: 0
Soybean (Glycine max); Preemergence, 250 g ai/ha
  Plant response rating, Soybean: 0
Soybean (Glycine max); Preemergence, 500 g ai/ha
  Plant response rating, Soybean: 0
[8]; Postemergence, 62 g ai/ha
  Plant response rating (0 to 100), Morningglory: 0
[8]; Postemergence, 125 g ai/ha
  Plant response rating (0 to 100), Morningglory: 0
[8]; [11]
  Plant response rating, Morningglory: 0
[8]; [12]
  Plant response rating, Morningglory: 0
[8]; Preemergence, 62 g ai/ha
  Plant response rating, Morningglory: 0
[8]; Preemergence, 125 g ai/ha
  Plant response rating, Morningglory: 0
[8]; Preemergence, 250 g ai/ha
  Plant response rating, Morningglory: 0
[8]; Preemergence, 500 g ai/ha
  Plant response rating, Morningglory: 0
[9]; Postemergence, 62 g ai/ha
  Plant response rating (0 to 100), Ragweed: 60
[9]; Postemergence, 125 g ai/ha
  Plant response rating (0 to 100), Ragweed: 45
[9]; [11]
  Plant response rating, Ragweed: 70
[9]; [12]
  Plant response rating, Ragweed: 85
[9]; Preemergence, 62 g ai/ha
  Plant response rating, Ragweed: 65
[9]; Preemergence, 125 g ai/ha
  Plant response rating, Ragweed: 75
[9]; Preemergence, 250 g ai/ha
  Plant response rating, Ragweed: 90
[9]; Preemergence, 500 g ai/ha
  Plant response rating, Ragweed: 98
[10]; Postemergence, 62 g ai/ha
  Plant response rating (0 to 100), Ryegrass, Italian: 0
[10]; Postemergence, 125 g ai/ha
  Plant response rating (0 to 100), Ryegrass, Italian: 0
[10]; [11]
  Plant response rating, Ryegrass, Italian: 0
[10]; [12]
  Plant response rating, Ryegrass, Italian: 0
[10]; Preemergence, 62 g ai/ha
  Plant response rating, Ryegrass, Italian: 0
[10]; Preemergence, 125 g ai/ha
  Plant response rating, Ryegrass, Italian: 0
[10]; Preemergence, 250 g ai/ha
  Plant response rating, Ryegrass, Italian: 0
[10]; Preemergence, 500 g ai/ha
  Plant response rating, Ryegrass, Italian: 0
